From ChEMBL document CHEMBL4184177, “Synthesis and bioevaluation study of novel N-methylpicolinamide and thienopyrimidine derivatives as selectivity c-Met kinase inhibitors” (Bioorg Med Chem, 2018)
The source made the active and inactive calls. No cut-off for these calls is given here.

Key:
HepG2 [1] = assay: Induction of apoptosis in human HepG2 cells assessed as early apoptotic cells at 0.47 uM by Annexin V-FITC/propidium iodide staining based flow cytometry (reference value: 1.11%); type: functional
[2] = biological target: Epidermal growth factor receptor (Homo sapiens, UniProt P00533); assay: Inhibition of EGFR (unknown origin) using FAM-labeled peptide substrate after 10 mins by mobility shift assay
Sequence of Epidermal growth factor receptor (P00533 whole entry): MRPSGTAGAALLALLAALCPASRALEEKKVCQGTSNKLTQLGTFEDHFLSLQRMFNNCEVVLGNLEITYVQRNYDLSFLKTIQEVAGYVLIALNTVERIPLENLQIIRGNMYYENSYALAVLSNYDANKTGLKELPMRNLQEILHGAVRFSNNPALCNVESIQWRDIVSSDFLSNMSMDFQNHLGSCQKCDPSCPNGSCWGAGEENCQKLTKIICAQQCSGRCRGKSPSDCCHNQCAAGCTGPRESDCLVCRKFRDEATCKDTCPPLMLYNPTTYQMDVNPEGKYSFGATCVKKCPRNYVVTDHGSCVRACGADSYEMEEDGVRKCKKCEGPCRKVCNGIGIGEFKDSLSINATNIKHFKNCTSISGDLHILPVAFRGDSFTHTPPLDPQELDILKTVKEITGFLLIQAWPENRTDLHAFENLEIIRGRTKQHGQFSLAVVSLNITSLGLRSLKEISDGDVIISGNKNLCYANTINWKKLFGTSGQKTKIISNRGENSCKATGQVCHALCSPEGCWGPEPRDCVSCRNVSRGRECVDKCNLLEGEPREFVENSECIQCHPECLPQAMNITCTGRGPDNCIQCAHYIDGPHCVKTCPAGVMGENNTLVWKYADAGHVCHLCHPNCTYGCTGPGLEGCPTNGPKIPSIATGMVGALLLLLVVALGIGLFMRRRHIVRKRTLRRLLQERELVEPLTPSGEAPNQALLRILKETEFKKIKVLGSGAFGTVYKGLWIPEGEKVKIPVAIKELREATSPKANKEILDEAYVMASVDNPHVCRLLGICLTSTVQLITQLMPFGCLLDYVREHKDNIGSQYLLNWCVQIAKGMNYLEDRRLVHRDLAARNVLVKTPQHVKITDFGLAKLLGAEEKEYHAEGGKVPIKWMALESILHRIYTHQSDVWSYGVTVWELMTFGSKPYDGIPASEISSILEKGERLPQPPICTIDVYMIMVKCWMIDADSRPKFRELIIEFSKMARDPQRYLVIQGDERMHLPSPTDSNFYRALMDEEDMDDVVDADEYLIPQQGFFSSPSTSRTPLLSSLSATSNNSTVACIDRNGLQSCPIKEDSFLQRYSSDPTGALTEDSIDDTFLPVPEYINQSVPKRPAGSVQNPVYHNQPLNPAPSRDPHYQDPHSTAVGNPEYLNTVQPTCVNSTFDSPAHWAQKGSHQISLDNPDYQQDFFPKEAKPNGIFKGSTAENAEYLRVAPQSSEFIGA

HepG2 [3] = assay: Induction of apoptosis in human HepG2 cells assessed as late apoptotic cells at 0.94 uM by Annexin V-FITC/propidium iodide staining based flow cytometry (reference value: 2.07%); type: functional
HepG2 [4] = assay: Induction of apoptosis in human HepG2 cells assessed as necrotic cells at 0.47 uM by Annexin V-FITC/propidium iodide staining based flow cytometry (reference value: 0.28%); type: functional
HepG2 [5] = assay: Potency index, ratio of foretinib IC50 to compound IC50 for human HepG2 cells; type: functional
HepG2 [6] = assay: Induction of apoptosis in human HepG2 cells assessed as late apoptotic cells at 0.47 uM by Annexin V-FITC/propidium iodide staining based flow cytometry (reference value: 2.07%); type: functional
[7] = biological target: Hepatocyte growth factor receptor (Homo sapiens, UniProt P08581); assay: Inhibition of c-Met (unknown origin) using FAM-labeled peptide substrate after 10 mins by mobility shift assay
Sequence of Hepatocyte growth factor receptor (P08581 whole entry): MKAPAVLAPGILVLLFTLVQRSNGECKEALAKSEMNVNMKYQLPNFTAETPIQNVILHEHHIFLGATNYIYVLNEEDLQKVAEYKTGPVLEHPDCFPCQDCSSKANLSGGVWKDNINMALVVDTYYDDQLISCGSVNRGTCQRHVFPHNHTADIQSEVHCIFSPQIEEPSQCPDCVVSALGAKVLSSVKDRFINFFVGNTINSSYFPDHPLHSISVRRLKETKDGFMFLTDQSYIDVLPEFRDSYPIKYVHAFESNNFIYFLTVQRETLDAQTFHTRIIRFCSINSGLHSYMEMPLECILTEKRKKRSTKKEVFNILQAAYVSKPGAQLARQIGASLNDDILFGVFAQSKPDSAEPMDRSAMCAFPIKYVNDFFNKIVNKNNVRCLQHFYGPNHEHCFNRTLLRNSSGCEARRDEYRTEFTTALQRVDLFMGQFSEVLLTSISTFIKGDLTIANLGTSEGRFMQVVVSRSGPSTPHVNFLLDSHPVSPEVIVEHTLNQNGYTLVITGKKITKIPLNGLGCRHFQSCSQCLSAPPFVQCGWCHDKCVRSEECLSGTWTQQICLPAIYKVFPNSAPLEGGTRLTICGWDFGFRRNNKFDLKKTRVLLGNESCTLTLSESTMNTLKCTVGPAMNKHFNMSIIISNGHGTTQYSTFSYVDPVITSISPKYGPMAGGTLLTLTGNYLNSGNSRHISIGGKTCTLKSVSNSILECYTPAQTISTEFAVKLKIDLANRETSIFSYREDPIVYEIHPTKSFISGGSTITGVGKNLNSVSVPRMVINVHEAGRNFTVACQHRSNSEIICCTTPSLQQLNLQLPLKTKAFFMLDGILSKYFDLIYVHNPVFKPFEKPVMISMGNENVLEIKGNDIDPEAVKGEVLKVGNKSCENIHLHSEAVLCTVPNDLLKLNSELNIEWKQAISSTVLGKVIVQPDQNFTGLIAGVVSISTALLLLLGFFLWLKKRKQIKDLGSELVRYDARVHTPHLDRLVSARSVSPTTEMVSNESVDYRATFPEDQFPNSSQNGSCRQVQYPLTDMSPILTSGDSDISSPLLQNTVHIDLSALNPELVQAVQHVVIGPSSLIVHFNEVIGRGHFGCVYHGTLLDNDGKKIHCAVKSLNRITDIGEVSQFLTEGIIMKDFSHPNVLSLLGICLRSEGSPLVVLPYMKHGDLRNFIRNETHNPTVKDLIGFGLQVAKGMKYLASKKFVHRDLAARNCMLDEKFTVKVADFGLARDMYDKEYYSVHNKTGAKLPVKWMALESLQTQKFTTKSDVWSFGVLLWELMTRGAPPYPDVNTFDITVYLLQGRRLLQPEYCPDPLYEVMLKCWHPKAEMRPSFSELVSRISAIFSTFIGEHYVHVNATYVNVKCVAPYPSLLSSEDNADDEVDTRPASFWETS

HepG2 [8] = assay: Induction of apoptosis in human HepG2 cells assessed as early apoptotic cells at 0.23 uM by Annexin V-FITC/propidium iodide staining based flow cytometry (reference value: 1.11%); type: functional
HepG2 [9] = assay: Induction of apoptosis in human HepG2 cells assessed as live cells at 0.23 uM by Annexin V-FITC/propidium iodide staining based flow cytometry (reference value: 96.54%); type: functional
MCF7 [10] = assay: Potency index, ratio of foretinib IC50 to compound IC50 for human MCF7 cells; type: functional
[11] = biological target: Vascular endothelial growth factor receptor 2 (Homo sapiens, UniProt P35968); assay: Inhibition of VEGFR2 (unknown origin) using FAM-labeled peptide substrate after 10 mins by mobility shift assay
Sequence of Vascular endothelial growth factor receptor 2 (P35968 whole entry): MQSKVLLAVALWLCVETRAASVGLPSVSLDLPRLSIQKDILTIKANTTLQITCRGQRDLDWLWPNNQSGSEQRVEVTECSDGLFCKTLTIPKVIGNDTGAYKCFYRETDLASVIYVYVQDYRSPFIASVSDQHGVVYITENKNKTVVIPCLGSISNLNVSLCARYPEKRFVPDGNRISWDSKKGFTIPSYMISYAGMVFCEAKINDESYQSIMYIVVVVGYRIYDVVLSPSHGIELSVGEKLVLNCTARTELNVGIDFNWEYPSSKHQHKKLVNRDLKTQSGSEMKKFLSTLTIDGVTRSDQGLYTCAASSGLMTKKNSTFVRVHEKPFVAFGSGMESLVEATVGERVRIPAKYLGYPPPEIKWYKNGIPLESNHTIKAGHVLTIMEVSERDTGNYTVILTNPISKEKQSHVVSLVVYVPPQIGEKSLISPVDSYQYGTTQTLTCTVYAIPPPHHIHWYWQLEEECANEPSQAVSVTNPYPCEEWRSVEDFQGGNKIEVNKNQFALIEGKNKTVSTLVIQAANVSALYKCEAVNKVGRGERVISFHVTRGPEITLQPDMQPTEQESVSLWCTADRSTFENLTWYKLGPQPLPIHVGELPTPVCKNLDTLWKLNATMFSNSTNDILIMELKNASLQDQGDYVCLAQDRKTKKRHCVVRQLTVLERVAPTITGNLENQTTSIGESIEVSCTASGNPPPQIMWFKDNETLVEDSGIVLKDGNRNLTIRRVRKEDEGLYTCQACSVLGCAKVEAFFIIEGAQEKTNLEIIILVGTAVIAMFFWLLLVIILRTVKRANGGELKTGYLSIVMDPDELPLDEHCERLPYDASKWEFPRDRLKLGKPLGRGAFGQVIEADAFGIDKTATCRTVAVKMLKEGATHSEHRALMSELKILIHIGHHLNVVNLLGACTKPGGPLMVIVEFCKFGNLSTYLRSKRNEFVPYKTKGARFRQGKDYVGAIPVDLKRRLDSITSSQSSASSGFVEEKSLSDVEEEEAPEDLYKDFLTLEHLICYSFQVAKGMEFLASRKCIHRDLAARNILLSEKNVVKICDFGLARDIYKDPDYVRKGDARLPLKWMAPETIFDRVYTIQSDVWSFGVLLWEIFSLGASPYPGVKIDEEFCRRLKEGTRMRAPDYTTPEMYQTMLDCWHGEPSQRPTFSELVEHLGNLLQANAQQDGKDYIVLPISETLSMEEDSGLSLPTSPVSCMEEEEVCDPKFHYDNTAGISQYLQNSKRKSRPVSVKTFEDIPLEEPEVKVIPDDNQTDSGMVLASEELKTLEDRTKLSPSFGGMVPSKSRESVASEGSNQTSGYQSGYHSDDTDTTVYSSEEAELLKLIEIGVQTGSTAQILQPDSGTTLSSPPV

HepG2 [12] = assay: Induction of apoptosis in human HepG2 cells assessed as necrotic cells at 0.23 uM by Annexin V-FITC/propidium iodide staining based flow cytometry (reference value: 0.28%); type: functional
HepG2 [13] = assay: cells; settings: Homo sapiens, HepG2, 72 h
Description: Cytotoxicity against human HepG2 cells after 72 hrs by MTT assay

[14] = biological target: Mast/stem cell growth factor receptor Kit (Homo sapiens, UniProt P10721); assay: Inhibition of c-Kit (unknown origin) using FAM-labeled peptide substrate after 10 mins by mobility shift assay
Sequence of Mast/stem cell growth factor receptor Kit (P10721 whole entry): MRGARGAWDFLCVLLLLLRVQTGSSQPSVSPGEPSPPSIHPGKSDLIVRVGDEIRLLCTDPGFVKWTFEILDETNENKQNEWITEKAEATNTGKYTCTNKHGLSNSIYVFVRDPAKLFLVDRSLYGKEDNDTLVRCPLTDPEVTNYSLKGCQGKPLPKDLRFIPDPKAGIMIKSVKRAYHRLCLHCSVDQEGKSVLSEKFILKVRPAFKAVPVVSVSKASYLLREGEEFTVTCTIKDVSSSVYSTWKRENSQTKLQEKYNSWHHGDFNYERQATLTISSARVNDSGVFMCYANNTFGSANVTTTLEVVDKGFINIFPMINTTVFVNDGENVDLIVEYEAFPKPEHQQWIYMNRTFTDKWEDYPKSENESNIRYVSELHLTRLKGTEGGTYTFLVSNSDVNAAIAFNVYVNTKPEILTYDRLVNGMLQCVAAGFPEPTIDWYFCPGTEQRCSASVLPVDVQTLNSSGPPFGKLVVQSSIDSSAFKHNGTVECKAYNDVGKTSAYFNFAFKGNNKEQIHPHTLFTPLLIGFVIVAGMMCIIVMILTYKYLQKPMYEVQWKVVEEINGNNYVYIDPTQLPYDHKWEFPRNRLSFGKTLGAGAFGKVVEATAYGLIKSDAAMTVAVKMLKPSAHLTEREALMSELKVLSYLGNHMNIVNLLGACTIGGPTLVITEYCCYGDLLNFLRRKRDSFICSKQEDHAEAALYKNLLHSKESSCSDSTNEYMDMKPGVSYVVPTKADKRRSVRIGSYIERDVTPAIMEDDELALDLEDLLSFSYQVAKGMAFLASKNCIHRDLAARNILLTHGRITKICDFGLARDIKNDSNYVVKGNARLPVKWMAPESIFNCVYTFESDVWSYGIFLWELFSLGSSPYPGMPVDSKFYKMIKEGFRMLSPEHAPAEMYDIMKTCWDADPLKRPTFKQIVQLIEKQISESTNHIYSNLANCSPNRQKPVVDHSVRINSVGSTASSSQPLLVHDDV

HepG2 [15] = assay: Induction of apoptosis in human HepG2 cells by Annexin V-FITC/propidium iodide staining based flow cytometry; type: functional, cell-based
HepG2 [16] = assay: Induction of apoptosis in human HepG2 cells assessed as necrotic cells at 0.94 uM by Annexin V-FITC/propidium iodide staining based flow cytometry (reference value: 0.28%); type: functional
MCF7 [17] = assay: cells; settings: Homo sapiens, MCF7, 72 h
Description: Cytotoxicity against human MCF7 cells after 72 hrs by MTT assay

HepG2 [18] = assay: Induction of apoptosis in human HepG2 cells assessed as late apoptotic cells at 0.23 uM by Annexin V-FITC/propidium iodide staining based flow cytometry (reference value: 2.07%); type: functional
HepG2 [19] = assay: Induction of morphological changes in human HepG2 cells assessed as chromatin condensation at 0.47 uM by acridine orange dye based inverted microscopy and fluorescence microscopic method; type: functional, cell-based
HepG2 [20] = assay: Induction of apoptosis in human HepG2 cells assessed as early apoptotic cells at 0.94 uM by Annexin V-FITC/propidium iodide staining based flow cytometry (reference value: 1.11%); type: functional
HepG2 [21] = assay: Induction of morphological changes in human HepG2 cells assessed as cell shrinkage at 0.47 uM by acridine orange dye based inverted microscopy and fluorescence microscopic method; type: functional
[22] = biological target: T1, Receptor-type tyrosine-protein kinase FLT3 (Homo sapiens, UniProt P36888); assay: Inhibition of FLT3 (unknown origin) using FAM-labeled peptide substrate after 10 mins by mobility shift assay
T1 sequence (P36888 whole entry): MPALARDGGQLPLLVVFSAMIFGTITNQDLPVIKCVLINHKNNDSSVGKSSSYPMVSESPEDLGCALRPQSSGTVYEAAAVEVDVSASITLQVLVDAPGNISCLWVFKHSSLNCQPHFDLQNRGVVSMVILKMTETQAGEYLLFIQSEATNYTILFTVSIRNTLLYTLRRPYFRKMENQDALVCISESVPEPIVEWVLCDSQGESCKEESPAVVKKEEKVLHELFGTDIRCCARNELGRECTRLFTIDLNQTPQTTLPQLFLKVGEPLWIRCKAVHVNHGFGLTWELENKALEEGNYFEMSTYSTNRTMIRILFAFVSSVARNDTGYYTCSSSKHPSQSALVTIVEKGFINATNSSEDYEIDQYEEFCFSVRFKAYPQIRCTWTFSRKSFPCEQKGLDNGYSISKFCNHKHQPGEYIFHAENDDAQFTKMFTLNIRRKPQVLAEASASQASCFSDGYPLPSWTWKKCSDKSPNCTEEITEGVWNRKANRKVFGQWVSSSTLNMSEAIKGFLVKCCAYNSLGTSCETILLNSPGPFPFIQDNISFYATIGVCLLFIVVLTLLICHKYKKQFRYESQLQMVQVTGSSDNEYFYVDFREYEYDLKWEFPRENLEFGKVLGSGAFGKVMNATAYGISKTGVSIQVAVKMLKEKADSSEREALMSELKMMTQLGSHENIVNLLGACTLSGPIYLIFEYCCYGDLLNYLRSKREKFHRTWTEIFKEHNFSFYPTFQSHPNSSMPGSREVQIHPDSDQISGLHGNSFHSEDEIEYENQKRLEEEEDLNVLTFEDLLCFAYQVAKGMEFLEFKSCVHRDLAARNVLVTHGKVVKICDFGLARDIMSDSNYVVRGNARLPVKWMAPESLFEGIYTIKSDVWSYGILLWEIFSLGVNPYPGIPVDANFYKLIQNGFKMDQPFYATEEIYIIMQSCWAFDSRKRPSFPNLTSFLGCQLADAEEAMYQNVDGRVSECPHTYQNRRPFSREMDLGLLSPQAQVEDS

A549 = assay: Cytotoxicity against human A549 cells after 72 hrs by MTT assay; settings: A549, 72 h
HepG2 [23] = assay: Induction of apoptosis in human HepG2 cells assessed as live cells at 0.47 uM by Annexin V-FITC/propidium iodide staining based flow cytometry (reference value: 96.54%); type: functional
HepG2 [24] = assay: Induction of apoptosis in human HepG2 cells assessed as live cells at 0.94 uM by Annexin V-FITC/propidium iodide staining based flow cytometry (reference value: 96.54%); type: functional

SMILES: Cc1cc(=O)n(-c2ccc(F)cc2)nc1C(=O)Nc1ccc(Oc2ncnc3ccsc23)c(F)c1
- Activity (HepG2 [1]): 16.09%
- IC50 [2]: 6900 nM
- Activity (HepG2 [3]): 21%
- Activity (HepG2 [4]): 1.25%
- Ratio IC50 (HepG2 [5]): 3.73 - 5.39
- Activity (HepG2 [6]): 10.3%
- IC50 [7]: 19 nM
- Activity (HepG2 [8]): 8.08%
- Activity (HepG2 [9]): 84.11%
- Ratio IC50 (MCF7 [10]): 3.73 - 5.39
- IC50 [11]: 450 nM
- Activity (HepG2 [12]): 1.28%
- IC50 (HepG2 [13]): 470 nM
- IC50 [14]: 3700 nM
- Activity (HepG2 [15]): Dose-dependent effect
- Activity (HepG2 [16]): 2.31%
- IC50 (MCF7 [17]): 740 nM
- Activity (HepG2 [18]): 6.54%
- Activity (HepG2 [19]): Active
- Activity (HepG2 [20]): 13.9%
- Activity (HepG2 [21]): Active
- IC50 [22]: 950 nM
- IC50 (A549): 580 nM
- Activity (HepG2 [23]): 72.36%
- Activity (HepG2 [24]): 62.8%
